Reference: publication PMC3485312, “A Phage Display Selected 7-mer Peptide Inhibitor of the Tannerella forsythia Metalloprotease-Like Enzyme Karilysin can be Truncated to Ser-Trp-Phe-Pro” (PLoS ONE, 2012)
Residues, ends and D or L forms follow the SMILES beside them.

Key:
[1] = target: T1, Kly18 (Karilysin catalytic domain) (Tannerella forsythia, UniProt D0EM77); conditions: cited from earlier work
T1 construct: Karilysin catalytic domain (Kly18) and intact Kly48 were produced as previously described; made in house
T1 sequence (D0EM77 35-195): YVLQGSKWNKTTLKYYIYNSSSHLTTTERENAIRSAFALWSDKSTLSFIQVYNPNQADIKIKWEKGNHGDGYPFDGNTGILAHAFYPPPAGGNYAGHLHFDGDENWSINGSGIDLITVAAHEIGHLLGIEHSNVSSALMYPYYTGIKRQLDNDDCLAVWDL
Excerpt: The development of MMP inhibitors is highly relevant, due to the involvement of MMPs in several pathologies. Some candidate molecules act by blocking the MMP-active sites via binding to the catalytic Zn^2+ through chelators such as hydroxamate. These approaches have been successful for MMP inhibition. However, the inhibitors have a broad specificity towards other MMPs due to very similar active site geometries of matrix metalloproteinases. An alternative approach to specific MMP inhibitor design is to utilize larger molecules, such as peptides, that interact with the activ ...

[2] = target: T1, Kly18 (Karilysin catalytic domain); assay: biochemical; conditions: for Kly18 inhibitory activity, single concentration screen: 87 µM peptide
Method: (§1) Kly18 and Kly48 protease activities were monitored essentially as described. One hundred µl working volumes were used in black untreated polypropylene microtitre plates and FITC-casein was used as the substrate. Assays were performed at 37°C using 500 nM of Kly18 (or Kly48) in assay buffer (100 mM Tris-HCl, 5mM CaCl2, pH 8.0), at a FITC-casein concentration of 25 µg/ml. […] Peptides were dissolved in Milli Q water and added in varying molarities. The assay setup was as follows; Kly18 (or Kly48) was diluted in assay buffer together with peptide, followed by 30 minutes incubation on a vertical shaker at 22°C. Then FITC-casein was added and fluorescence formation was monitored at 37°C for 90 minutes with measurements every ten minutes.

intact Karilysin (Kly48) = target: T2, intact Karilysin (Kly48) (Tannerella forsythia, UniProt D0EM77); assay: Kly48 protease activity assay with FITC-casein substrate; format: biochemical; conditions: 500 nM Kly48, FITC-casein, peptide 2.3 µM to 55.6 µM; three experiments
T2 construct: made in house
T2 sequence (D0EM77 35-472): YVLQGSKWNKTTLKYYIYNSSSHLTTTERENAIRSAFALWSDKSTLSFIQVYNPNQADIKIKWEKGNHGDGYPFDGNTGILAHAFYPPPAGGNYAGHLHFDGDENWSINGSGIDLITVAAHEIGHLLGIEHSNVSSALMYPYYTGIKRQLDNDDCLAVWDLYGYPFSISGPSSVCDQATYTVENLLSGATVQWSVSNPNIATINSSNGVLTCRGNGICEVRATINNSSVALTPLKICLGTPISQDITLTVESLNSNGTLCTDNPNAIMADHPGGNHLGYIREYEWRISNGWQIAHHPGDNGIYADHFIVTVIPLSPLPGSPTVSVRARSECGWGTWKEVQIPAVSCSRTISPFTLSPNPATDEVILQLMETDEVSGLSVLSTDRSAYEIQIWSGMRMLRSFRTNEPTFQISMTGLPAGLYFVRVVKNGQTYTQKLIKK
Method: as §1

Karilysin (Kly48) = target: T3, Karilysin (Kly48) (Tannerella forsythia, UniProt D0EM77); assay: Auto-processing of Kly48 monitored by SDS-PAGE; format: biochemical; conditions: Kly48 13 µM, peptide 455 µM, 37°C, 50 mM Tris-HCl, 2.5 mM CaCl2, pH 8.0, up to 48 hours
T3 construct: made in house
T3 sequence (D0EM77 35-472): as above
Method: Karilysin (Kly48) at 13 µM was incubated at 37°C in 50 mM Tris-HCl, 2.5 mM CaCl2, 0.02% NaN3 pH 8.0 alone or in the presence of the peptide SWFPL at 455 µM. At different time points samples were withdrawn and the Kly48 autocatalytic processing was monitored by SDS-PAGE using 10% gels and the Tris-HCl/Tricine buffer system. Gels were stained with 0.1% Coomassie Brilliant Blue R-250 in 10% acetic acid followed by destaining. Samples were run alongside a Low Molecular Weight SDS-PAGE Marker.

## c1cnc2c(c1)ccc1cccnc12 [1,10-phenanthroline]
[1]
  Inhibition of Kly18 by small molecule chelators: inhibited

## NC(=O)[C@@H]1CCCN1C(=O)[C@H](Cc1ccccc1)NC(=O)[C@H](Cc1c[nH]c2ccccc12)NC(=O)[C@@H](N)CO [15-7, (NH2)-SWFP-(CONH2)] (H-SWFP-NH2)
[2]
  Ki: 10.7 ± 2.25 µM
[2]; FITC-casein substrate
  Kly18 inhibitory activity, single concentration screen: retained efficient inhibitory potency

## O=C(O)CN(CCN(CC(=O)O)CC(=O)O)CC(=O)O [EDTA]
[1]
  Inhibition of Kly18 by small molecule chelators: inhibited

## (NH2)-WFP-(CONH2) [15-8]
[2]; FITC-casein substrate
  Kly18 inhibitory activity, single concentration screen: lost most or all of their Kly18 inhibition capacity
[2]; FITC-casein substrate, listed as (NH2)-WFP-(CONH2)
  Kly18 inhibitory activity, single concentration screen: completely inactive

## (NH2)-WFPL-(CONH2) [15-15]
[2]; FITC-casein substrate
  Kly18 inhibitory activity, single concentration screen: lost most or all of their Kly18 inhibition capacity

## (NH2)-WFPLR-(CONH2) [15-14]
[2]; FITC-casein substrate
  Kly18 inhibitory activity, single concentration screen: lost most or all of their Kly18 inhibition capacity

## H-SAAALRSGGGS-NH2 [control peptide, control peptide with the WFP motif replaced by a triple alanine, reference compound]
[2]; 174 µM peptide, FITC-casein substrate, two experiments
  Kly18 inhibition at very high dose: curve similar to that of Kly18 with no peptide present

## H-SWAPLRSGGGS-NH2 [15-16]
[2]; FITC-casein substrate
  Kly18 inhibitory activity, single concentration screen: inactive

## H-SWFPL-NH2 [15-6, (NH2)-SWFPL-(CONH2)]
Intact Karilysin (Kly48)
  Inhibition of Kly48 proteolytic activity (dose-response): clear dose-response inhibition
Karilysin (Kly48)
  Effect on Kly48 auto-processing to Kly38 and Kly18: inhibited the auto-processesing efficiently
[2]
  Ki: 8.36 ± 2.34 µM

## H-SWFPLR-NH2 [15-5, (NH2)-SWFPLR-(CONH2)]
[2]
  Ki: 6.52 ± 0.88 µM

## H-SWFPLRSGGGS-NH2 [15-0]
[2]
  Ki: 5.34 ± 0.51 µM

## H-WFPLRS-NH2 [15-13]
[2]; FITC-casein substrate
  Kly18 inhibitory activity, single concentration screen: lost most or all of their Kly18 inhibition capacity

## H-WFPLRSG-NH2 [15-12]
[2]; FITC-casein substrate
  Kly18 inhibitory activity, single concentration screen: lost most or all of their Kly18 inhibition capacity

## H-WFPLRSGG-NH2 [15-11]
[2]; FITC-casein substrate
  Kly18 inhibitory activity, single concentration screen: lost most or all of their Kly18 inhibition capacity

## H-WFPLRSGGG-NH2 [15-10]
[2]; FITC-casein substrate
  Kly18 inhibitory activity, single concentration screen: lost most or all of their Kly18 inhibition capacity
